{"source": "patent US4963526A", "about": "“Oral insulin and a method of making the same” (priority 1988, dated 1990)", "test_system": "white laboratory rats", "assay": "Blood glucose level in rats before and three hours after administration of the oral insulin preparation", "type": "in vivo", "settings": "white laboratory rat, 5 units of bovine insulin, three hours after administration", "protocol": "Two white laboratory rats, weighing 177 and 197 grams, respectively, were used in this experiment. One rat was administered a preparation of oral insulin according to the present invention containing 5 units of insulin; a formulation of the oral insulin according to the present invention containing 10 units of bovine insulin was administered to the second rat. Blood samples were drawn from each animal before and three hours after administration of the oral insulin preparation. The results given below are expressed as the percentage of the pre-experiment blood glucose level.\nOne white laboratory rat weighing 181 grams received a non-encapsulated preparation containing 5 units of free bovine insulin. This animal served as the control. After three hours, blood glucose level was 98.7% of the pre-experiment blood glucose level."}
{"substance": "free bovine insulin: non-encapsulated preparation containing 5 units of free bovine insulin; served as the control", "values": [{"measurement": "blood glucose level as percentage of the pre-experiment (initial) blood glucose level", "value": "98.7 % of initial blood glucose lev"}]}
